# Patent publication US6737383B1, “Herbicidal oxadiazolidines” (priority 1999, dated 2004)
# Assays:
# bedstraw = assay: Test B pre/postemergence bedstraw; assay type: in vivo, Galium aparine; conditions: for Bedstraw plant response rating: scale of 0 to 10 where 0 is no effect and 10 is complete control
# In short: (§1)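 Test chemicals in a non-phytotoxic solvent mixture with surfactant were sprayed preemergence onto planted seeds and postemergence onto plants 2 to 18 cm tall (1- to 4-leaf stage). After twelve to sixteen days in a greenhouse, injury was visually rated against untreated controls from 0 (no effect) to 10 (complete control).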
# blackgrass = assay: Test B pre/postemergence blackgrass; assay type: in vivo, Alopecurus myosuroides; conditions: for Blackgrass plant response rating: scale of 0 to 10 where 0 is no effect and 10 is complete control
# In short: as §1
# giant foxtail = assay: Test B pre/postemergence giant foxtail; assay type: in vivo, Setaria faberii; conditions: for Giant foxtail plant response rating: scale of 0 to 10 where 0 is no effect and 10 is complete control
# In short: as §1
# morningglory = assay: Test B pre/postemergence morningglory; assay type: in vivo, Ipomoea hederacea; conditions: for Morningglory plant response rating: scale of 0 to 10 where 0 is no effect and 10 is complete control
# In short: as §1
# pigweed = assay: Test B pre/postemergence pigweed; assay type: in vivo, Amaranthus retroflexus; conditions: for Redroot pigweed plant response rating: scale of 0 to 10 where 0 is no effect and 10 is complete control
# In short: as §1
# rape = assay: Test B pre/postemergence rape; assay type: in vivo, Brassica napus; conditions: for Rape plant response rating: scale of 0 to 10 where 0 is no effect and 10 is complete control
# In short: as §1
# soybean = assay: Test B pre/postemergence soybean; assay type: in vivo, Glycine max; conditions: for Soybean plant response rating: scale of 0 to 10 where 0 is no effect and 10 is complete control
# In short: as §1
# sugar beet = assay: Test B pre/postemergence sugar beet; assay type: in vivo, Beta vulgaris; conditions: for Sugarbeets plant response rating: scale of 0 to 10 where 0 is no effect and 10 is complete control
# In short: as §1
# velvetleaf = assay: Test B pre/postemergence velvetleaf; assay type: in vivo, Abutilon theophrasti; conditions: for Velvetleaf plant response rating: scale of 0 to 10 where 0 is no effect and 10 is complete control
# In short: as §1
# wheat = assay: Test B pre/postemergence wheat; assay type: in vivo, Triticum aestivum; conditions: for Wheat plant response rating: scale of 0 to 10 where 0 is no effect and 10 is complete control
# In short: as §1
# wild oat = assay: Test B pre/postemergence wild oat; assay type: in vivo, Avena fatua; conditions: for Wild oats plant response rating: scale of 0 to 10 where 0 is no effect and 10 is complete control
# In short: as §1
# purple nutsedge = assay: Test B pre/postemergence purple nutsedge; assay type: in vivo, Cyperus rotundus; conditions: for Nutsedge plant response rating: scale of 0 to 10 where 0 is no effect and 10 is complete control
# In short: as §1
# rice = assay: Test B flood test rice; assay type: in vivo, Oryza sativa
# In short: (§2)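 Flood test on plants grown to the 2-leaf stage; treated plants kept in greenhouse twelve to sixteen days, then visually rated against controls on a 0 (no effect) to 10 (complete control) scale.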
# smallflower flatsedge = assay: Test B flood test smallflower flatsedge; assay type: in vivo, Cyperus difformis
# In short: as §2
# duck salad = assay: Test B flood test duck salad; assay type: in vivo, Heteranthera limosa
# In short: as §2
# bamyardgrass = assay: Test B flood test barnyardgrass; assay type: in vivo, Echinochloa crus-galli
# In short: as §2
# [1] = Postemergence, Rate 125 g/ha, scale 0 to 10, 0 is no effect, 10 is complete control
# [2] = Postemergence, Rate 250 g/ha, scale 0 to 10, 0 is no effect, 10 is complete control
# [3] = Preemergence, Rate 62 g/ha, scale 0 to 10 (0 no effect, 10 complete control)
# [4] = Rate 500 g/ha, Postemergence, scale 0 to 10, 0 no effect, 10 complete control
# [5] = Rate 62 g/ha, flood test species, Pre-emergence, visual evaluation after twelve to sixteen days
# [6] = Rate 125 g/ha, under heading Pre-emergence, flood test species, visual evaluation after twelve to sixteen days
# [7] = Rate 250 g/ha, Pre-emergence, flood-test species, scale 0 to 10, 0 is no effect, 10 is complete control
# [8] = Rate 500 g/ha, Pre-emergence, flood test species, scale 0 to 10 (0 no effect, 10 complete control)
compound,measurement,setting,value
CCOc1nc(C(F)(F)F)c(Cn2c(=O)on(C(=O)N(c3ccccc3)C(C)C)c2=O)s1 [Compound 379],"Plant response rating, Bedstraw",bedstraw; [1],0
same,"Plant response rating, Bedstraw",bedstraw; [2],0
same,"Plant response rating, Bedstraw",bedstraw; [3],0
same,Bedstraw plant response rating (0 to 10 scale),"bedstraw; Preemergence, Rate 125 g/ha",0
same,Bedstraw plant response rating,"bedstraw; Preemergence, Rate 250 g/ha",0
same,Bedstraw plant response rating,"bedstraw; Rate 62 g/ha, Postemergence",0
same,"Plant response rating, Bedstraw",bedstraw; [4],0
same,"Plant response rating, Blackgrass",blackgrass; [1],0
same,"Plant response rating, Blackgrass",blackgrass; [2],0
same,"Plant response rating, Blackgrass",blackgrass; [3],0
same,Blackgrass plant response rating (0 to 10 scale),"blackgrass; Preemergence, Rate 125 g/ha",0
same,Blackgrass plant response rating,"blackgrass; Preemergence, Rate 250 g/ha",0
same,Blackgrass plant response rating,"blackgrass; Preemergence, Rate 500 g/ha",0
same,Blackgrass plant response rating,"blackgrass; Rate 62 g/ha, Postemergence",0
same,"Plant response rating, Blackgrass",blackgrass; [4],0
same,"Plant response rating, Giant foxtail",giant foxtail; [1],0
same,"Plant response rating, Giant foxtail",giant foxtail; [2],2
same,"Plant response rating, Giant foxtail",giant foxtail; [3],0
same,Giant foxtail plant response rating (0 to 10 scale),"giant foxtail; Preemergence, Rate 125 g/ha",1
same,Giant foxtail plant response rating,"giant foxtail; Preemergence, Rate 250 g/ha",6
same,Giant foxtail plant response rating,"giant foxtail; Preemergence, Rate 500 g/ha",9
same,Giant foxtail plant response rating,"giant foxtail; Rate 62 g/ha, Postemergence",0
same,"Plant response rating, Giant foxtail",giant foxtail; [4],7
same,"Plant response rating, Morningglory",morningglory; [1],7
same,"Plant response rating, Morningglory",morningglory; [2],8
same,"Plant response rating, Morningglory",morningglory; [3],0
same,Morningglory plant response rating (0 to 10 scale),"morningglory; Preemergence, Rate 125 g/ha",0
same,Morningglory plant response rating,"morningglory; Preemergence, Rate 250 g/ha",0
same,Morningglory plant response rating,"morningglory; Preemergence, Rate 500 g/ha",0
same,Morningglory plant response rating,"morningglory; Rate 62 g/ha, Postemergence",5
same,"Plant response rating, Morningglory",morningglory; [4],10
same,"Plant response rating, Redroot pigweed",pigweed; [1],0
same,"Plant response rating, Redroot pigweed",pigweed; [2],1
same,"Plant response rating, Redroot pigweed",pigweed; [3],0
same,Redroot pigweed plant response rating (0 to 10 scale),"pigweed; Preemergence, Rate 125 g/ha",0
same,Redroot pigweed plant response rating,"pigweed; Preemergence, Rate 250 g/ha",0
same,Redroot pigweed plant response rating,"pigweed; Preemergence, Rate 500 g/ha",0
same,Redroot pigweed plant response rating,"pigweed; Rate 62 g/ha, Postemergence",0
same,"Plant response rating, Redroot pigweed",pigweed; [4],1
same,"Plant response rating, Rape",rape; [1],0
same,"Plant response rating, Rape",rape; [2],0
same,"Plant response rating, Rape",rape; [3],0
same,Rape plant response rating (0 to 10 scale),"rape; Preemergence, Rate 125 g/ha",0
same,Rape plant response rating,"rape; Preemergence, Rate 250 g/ha",0
same,Rape plant response rating,"rape; Preemergence, Rate 500 g/ha",0
same,Rape plant response rating,"rape; Rate 62 g/ha, Postemergence",0
same,"Plant response rating, Rape",rape; [4],0
same,"Plant response rating, Soybean",soybean; [1],1
same,"Plant response rating, Soybean",soybean; [2],1
same,"Plant response rating, Soybean",soybean; [3],0
same,Soybean plant response rating (0 to 10 scale),"soybean; Preemergence, Rate 125 g/ha",0
same,Soybean plant response rating,"soybean; Preemergence, Rate 250 g/ha",0
same,Soybean plant response rating,"soybean; Preemergence, Rate 500 g/ha",0
same,Soybean plant response rating,"soybean; Rate 62 g/ha, Postemergence",1
same,"Plant response rating, Soybean",soybean; [4],2
same,"Plant response rating, Sugarbeets",sugar beet; [1],0
same,"Plant response rating, Sugarbeets",sugar beet; [2],0
same,"Plant response rating, Sugarbeets",sugar beet; [3],0
same,Sugarbeets plant response rating (0 to 10 scale),"sugar beet; Preemergence, Rate 125 g/ha",0
same,Sugarbeets plant response rating,"sugar beet; Preemergence, Rate 250 g/ha",0
same,Sugarbeets plant response rating,"sugar beet; Preemergence, Rate 500 g/ha",0
same,Sugarbeets plant response rating,"sugar beet; Rate 62 g/ha, Postemergence",0
same,"Plant response rating, Sugarbeets",sugar beet; [4],0
same,"Plant response rating, Velvetleaf",velvetleaf; [1],0
same,"Plant response rating, Velvetleaf",velvetleaf; [2],0
same,"Plant response rating, Velvetleaf",velvetleaf; [3],0
same,Velvetleaf plant response rating (0 to 10 scale),"velvetleaf; Preemergence, Rate 125 g/ha",0
same,Velvetleaf plant response rating,"velvetleaf; Preemergence, Rate 250 g/ha",0
same,Velvetleaf plant response rating,"velvetleaf; Preemergence, Rate 500 g/ha",0
same,Velvetleaf plant response rating,"velvetleaf; Rate 62 g/ha, Postemergence",0
same,"Plant response rating, Velvetleaf",velvetleaf; [4],0
same,"Plant response rating, Wheat",wheat; [1],0
same,"Plant response rating, Wheat",wheat; [2],0
same,"Plant response rating, Wheat",wheat; [3],0
same,Wheat plant response rating (0 to 10 scale),"wheat; Preemergence, Rate 125 g/ha",0
same,Wheat plant response rating,"wheat; Preemergence, Rate 250 g/ha",0
same,Wheat plant response rating,"wheat; Preemergence, Rate 500 g/ha",0
same,Wheat plant response rating,"wheat; Rate 62 g/ha, Postemergence",0
same,"Plant response rating, Wheat",wheat; [4],0
same,"Plant response rating, Wild oats",wild oat; [1],0
same,"Plant response rating, Wild oats",wild oat; [2],0
same,"Plant response rating, Wild oats",wild oat; [3],0
same,Wild oats plant response rating (0 to 10 scale),"wild oat; Preemergence, Rate 125 g/ha",0
same,Wild oats plant response rating,"wild oat; Preemergence, Rate 250 g/ha",0
same,Wild oats plant response rating,"wild oat; Preemergence, Rate 500 g/ha",0
same,Wild oats plant response rating,"wild oat; Rate 62 g/ha, Postemergence",0
same,"Plant response rating, Wild oats",wild oat; [4],0
same,"Plant response rating, Nutsedge",purple nutsedge; [1],0
same,"Plant response rating, Nutsedge",purple nutsedge; [2],0
same,"Plant response rating, Nutsedge",purple nutsedge; [3],0
same,Nutsedge plant response rating (0 to 10 scale),"purple nutsedge; Preemergence, Rate 125 g/ha",0
same,Nutsedge plant response rating,"purple nutsedge; Preemergence, Rate 250 g/ha",0
same,Nutsedge plant response rating,"purple nutsedge; Preemergence, Rate 500 g/ha",0
same,Nutsedge plant response rating,"purple nutsedge; Rate 62 g/ha, Postemergence",0
same,"Plant response rating, Nutsedge",purple nutsedge; [4],0
same,"Plant response rating, Rice (0 to 10 scale, 0 is no effect, 10 is complete control)",rice; [5],0
same,"Rice plant response rating (0 to 10 scale, 0 is no effect, 10 is complete control)",rice; [6],0
same,Rice plant response rating,rice; [7],0
same,Rice plant response rating,rice; [8],0
same,"Plant response rating, S. Flatsedge (0 to 10 scale, 0 is no effect, 10 is complete control)",smallflower flatsedge; [5],0
same,"S. Flatsedge plant response rating (0 to 10 scale, 0 is no effect, 10 is complete control)",smallflower flatsedge; [6],0
same,S. Flatsedge plant response rating,smallflower flatsedge; [7],0
same,S. Flatsedge plant response rating,smallflower flatsedge; [8],0
same,"Plant response rating, Ducksalad (0 to 10 scale, 0 is no effect, 10 is complete control)",duck salad; [5],0
same,"Ducksalad plant response rating (0 to 10 scale, 0 is no effect, 10 is complete control)",duck salad; [6],0
same,Ducksalad plant response rating,duck salad; [7],0
same,Ducksalad plant response rating,duck salad; [8],0
same,"Plant response rating, Barnyardgrass (0 to 10 scale, 0 is no effect, 10 is complete control)",bamyardgrass; [5],0
same,"Barnyardgrass plant response rating (0 to 10 scale, 0 is no effect, 10 is complete control)",bamyardgrass; [6],0
same,Barnyardgrass plant response rating,bamyardgrass; [7],0
same,Barnyardgrass plant response rating,bamyardgrass; [8],0
